Assay results from PubChem BioAssay AID2060609 (Molecular Pharmacology Branch, DTP, NCI, 2025).

Test system: 855422-203-R-J1-PDC complex spheroids, viability
Assay: Anticancer human tumor 855422-203-R-J1-PDC patient-derived bladder carcinoma cell line growth inhibition [CLK]
Conditions: for IC50: curve of first compound; for viability, T/C: stronger effect = lower value; active = viability on the fitted dose curve at most 10% of control; inactive = the rest
Outline: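 Multi-cell-type spheroids combined patient-derived tumor cells with HUVEC endothelial cells and human mesenchymal stem cells. Paired agents were dosed in half-log steps down from about clinical Cmax, or from 10 microM where Cmax was unknown.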

[1] = second compound 0.0316 µM, first compound 0.0316 µM
[2] = second compound 0.0316 µM, first compound 0.1 µM
[3] = second compound 0.0316 µM, first compound 0.316 µM
[4] = second compound 0.0316 µM, first compound 1 µM
[5] = second compound 0.0316 µM, first compound 3.16 µM
[6] = second compound 0.0316 µM, first compound 10 µM
[7] = second compound 0.1 µM, first compound 0.0316 µM
[8] = second compound 0.1 µM, first compound 0.1 µM
[9] = second compound 0.1 µM, first compound 0.316 µM
[10] = second compound 0.1 µM, first compound 1 µM
[11] = second compound 0.1 µM, first compound 3.16 µM
[12] = second compound 0.1 µM, first compound 10 µM
[13] = second compound 0.316 µM, first compound 0.0316 µM
[14] = second compound 0.316 µM, first compound 0.1 µM
[15] = second compound 0.316 µM, first compound 0.316 µM
[16] = second compound 0.316 µM, first compound 1 µM
[17] = second compound 0.316 µM, first compound 3.16 µM
[18] = second compound 0.316 µM, first compound 10 µM
[19] = second compound 1 µM, first compound 0.0316 µM
[20] = second compound 1 µM, first compound 0.1 µM
[21] = second compound 1 µM, first compound 0.316 µM
[22] = second compound 1 µM, first compound 1 µM
[23] = second compound 1 µM, first compound 3.16 µM
[24] = second compound 1 µM, first compound 10 µM
[25] = second compound 3.16 µM, first compound 0.0316 µM
[26] = second compound 3.16 µM, first compound 0.1 µM
[27] = second compound 3.16 µM, first compound 0.316 µM
[28] = second compound 3.16 µM, first compound 1 µM
[29] = second compound 3.16 µM, first compound 3.16 µM
[30] = second compound 3.16 µM, first compound 10 µM
[31] = second compound 10 µM, first compound 0.0316 µM
[32] = second compound 10 µM, first compound 0.1 µM
[33] = second compound 10 µM, first compound 0.316 µM
[34] = second compound 10 µM, first compound 1 µM
[35] = second compound 10 µM, first compound 3.16 µM
[36] = second compound 10 µM, first compound 10 µM
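Also: spheroids exposed to drugs for seven days before readout.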
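For viability, T/C in this document: 100% = DMSO vehicle control wells.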

CC1(C)CCC(CN2CCN(c3ccc(C(=O)NS(=O)(=O)c4ccc(NCC5CCOCC5)c([N+](=O)[O-])c4)c(Oc4cnc5[nH]ccc5c4)c3)CC2)=C(c2ccc(Cl)cc2)C1 + CN1CCN(c2cc(C(=O)Nc3cc4cc(-c5cnn(C)c5)ccc4cn3)ccn2)CC1
5320 nM: IC50 (second compound 0.1 µM)
< 31.6 nM: IC50 (second compound 0.316 µM) | IC50 (second compound 1 µM) | IC50 (second compound 3.16 µM) | IC50 (second compound 10 µM)
6060 nM: IC50 (second compound 0.0316 µM)
inactive: viability, T/C [1] 97.3% | viability, T/C [2] 96.2% | viability, T/C [3] 115% | viability, T/C [4] 116% | viability, T/C [5] 137% | viability, T/C [7] 85.1% | viability, T/C [8] 81.9% | viability, T/C [9] 104% | viability, T/C [10] 88.2% | viability, T/C [11] 93% | viability, T/C [13] 10.7% | viability, T/C [14] 11.8%
active: viability, T/C [6] 1.97% | viability, T/C [12] 1.08% | viability, T/C [15] 8.68% | viability, T/C [16] 10.2% | viability, T/C [17] 10.3% | viability, T/C [18] 0.47% | viability, T/C [19] 0.26% | viability, T/C [20] 0.89% | viability, T/C [21] 0.24% | viability, T/C [22] 0.46% | viability, T/C [23] 0.51% | viability, T/C [24] 0.11% | viability, T/C [25] 0.63% | viability, T/C [26] 2.77% | viability, T/C [27] 0.71% | viability, T/C [28] 0.87% | viability, T/C [29] 1.82% | viability, T/C [30] 1.58% | viability, T/C [31] 0.52% | viability, T/C [32] 0.31% | viability, T/C [33] 0.36% | viability, T/C [34] 0.45% | viability, T/C [35] 0.29% | viability, T/C [36] 0.25%

Nc1ccn(C2OC(CO)C(O)C2(F)F)c(=O)n1 (stereo unspecified) + CNC(=O)c1ccc(Nc2nc(OC3CCCC3)c3c(-c4ccc5nc(C)oc5c4)c[nH]c3n2)c(OC)c1
inactive: viability, T/C [1] 26.9% | viability, T/C [2] 13.1% | viability, T/C [3] 13% | viability, T/C [7] 17.3% | viability, T/C [8] 12.1% | viability, T/C [9] 12.5% | viability, T/C [13] 17.4% | viability, T/C [14] 12.8% | viability, T/C [15] 12% | viability, T/C [19] 18.6% | viability, T/C [20] 21.8% | viability, T/C [21] 12.8% | viability, T/C [22] 10.1% | viability, T/C [25] 19.4% | viability, T/C [26] 16.6% | viability, T/C [27] 14.9% | viability, T/C [28] 10.2% | viability, T/C [31] 19.3% | viability, T/C [32] 16.4% | viability, T/C [33] 14.1% | viability, T/C [34] 9.84%
active: viability, T/C [4] 8.48% | viability, T/C [5] 8.78% | viability, T/C [6] 6.08% | viability, T/C [10] 11.8% | viability, T/C [11] 7.27% | viability, T/C [12] 5.69% | viability, T/C [16] 10.3% | viability, T/C [17] 5.76% | viability, T/C [18] 5.3% | viability, T/C [23] 9.02% | viability, T/C [24] 6.99% | viability, T/C [29] 8.27% | viability, T/C [30] 6.69% | viability, T/C [35] 10.5% | viability, T/C [36] 5.99%
< 31.6 nM: IC50 (second compound 0.0316 µM) | IC50 (second compound 0.1 µM) | IC50 (second compound 0.316 µM) | IC50 (second compound 1 µM) | IC50 (second compound 3.16 µM) | IC50 (second compound 10 µM)

NC(=O)C(=Cn1cnc(-c2cc(C(F)(F)F)cc(C(F)(F)F)c2)n1)c1cncnc1 + CN1CCN(c2cc(C(=O)Nc3cc4cc(-c5cnn(C)c5)ccc4cn3)ccn2)CC1
active: viability, T/C (second compound 0.0316 µM, first compound 0.3 µM) 5.66% | viability, T/C (second compound 0.0316 µM, first compound 0.949 µM) 6% | viability, T/C (second compound 0.0316 µM, first compound 3 µM) 1.88% | viability, T/C (second compound 0.1 µM, first compound 0.3 µM) 2.07% | viability, T/C (second compound 0.1 µM, first compound 0.949 µM) 3.91% | viability, T/C (second compound 0.1 µM, first compound 3 µM) 0.25% | viability, T/C (second compound 0.316 µM, first compound 0.00949 µM) 2.6% | viability, T/C (second compound 0.316 µM, first compound 0.03 µM) 1.37% | viability, T/C (second compound 0.316 µM, first compound 0.0949 µM) 1.48% | viability, T/C (second compound 0.316 µM, first compound 0.3 µM) 0.21% | viability, T/C (second compound 0.316 µM, first compound 0.949 µM) 0.13% | viability, T/C (second compound 0.316 µM, first compound 3 µM) 0.05% | viability, T/C (second compound 1 µM, first compound 0.00949 µM) 0.15% | viability, T/C (second compound 1 µM, first compound 0.03 µM) 0.76% | viability, T/C (second compound 1 µM, first compound 0.0949 µM) 0.42% | viability, T/C (second compound 1 µM, first compound 0.3 µM) 0.21% | viability, T/C (second compound 1 µM, first compound 0.949 µM) 0.71% | viability, T/C (second compound 1 µM, first compound 3 µM) 0.05% | viability, T/C (second compound 3.16 µM, first compound 0.00949 µM) 0.27% | viability, T/C (second compound 3.16 µM, first compound 0.03 µM) 0.21% | viability, T/C (second compound 3.16 µM, first compound 0.0949 µM) 0.42% | viability, T/C (second compound 3.16 µM, first compound 0.3 µM) 0.13% | viability, T/C (second compound 3.16 µM, first compound 0.949 µM) 0.22% | viability, T/C (second compound 3.16 µM, first compound 3 µM) 0.09% | viability, T/C (second compound 10 µM, first compound 0.00949 µM) 0.14% | viability, T/C (second compound 10 µM, first compound 0.03 µM) 0.09% | viability, T/C (second compound 10 µM, first compound 0.0949 µM) 0.34% | viability, T/C (second compound 10 µM, first compound 0.3 µM) 0.23% | viability, T/C (second compound 10 µM, first compound 0.949 µM) 0.6% | viability, T/C (second compound 10 µM, first compound 3 µM) 0.2%
< 9.49 nM: IC50 (second compound 0.316 µM) | IC50 (second compound 1 µM) | IC50 (second compound 3.16 µM) | IC50 (second compound 10 µM)
52.3 nM: IC50 (second compound 0.1 µM)
inactive: viability, T/C (second compound 0.0316 µM, first compound 0.00949 µM) 137% | viability, T/C (second compound 0.0316 µM, first compound 0.03 µM) 122% | viability, T/C (second compound 0.0316 µM, first compound 0.0949 µM) 25.1% | viability, T/C (second compound 0.1 µM, first compound 0.00949 µM) 82.6% | viability, T/C (second compound 0.1 µM, first compound 0.03 µM) 90.1% | viability, T/C (second compound 0.1 µM, first compound 0.0949 µM) 11.2%
70.6 nM: IC50 (second compound 0.0316 µM)
